Measurements: US11285169B2, “Methods for modulating chemotherapeutic cytotoxicity” (The United States of America, as represented by the …, priority 2013, dated 2022)

Legend:
4T1 breast tumors = experiment: 4T1 breast cancer cells in mammary fat pad of Balb/c mice: tumor growth, weight, lung metastasis; type: in vivo, mouse; details: for tumor weight at end of study: excised tumors; for tumor growth (tumor volume): weekly treatment, followed for 30 days, Dox i.v., CD47 M i.p. 48 hours before
Experimental: Balb/c mice were injected with 5×10^3 4 T1 breast cancer cells in the mammary fat pad. Tumors were left untreated, treated with 100 μl of 10 μg/mL doxorubicin (Dox) or with 10 μg/mL Dox in combination with 10 μM CD47 Morpholino (CD47 M). Doxorubicin treatment was given intravenously weekly. Treatment with CD47 M was given intraperitoneally 48 hours prior to doxorubicin injection.
4T1B breast cancer cells were implanted in the mammary fat-pad of Balb/C mice. The mice were treated weekly with saline, doxorubicin, CD47 M, or the combination of CD47 M with doxorubicin. Tumor growth was measured using calipers and was followed for 30 days. Treatment with CD47 morpholino was done two days prior to each treatment with doxorubicin for four weeks.
Tumors were excised at the end of the study and weighed. Tumors of mice treated with saline tripled in size (FIG. 1B).
The 4T1 breast cancer model is a well known model for metastasis of orthotopic breast tumors to lung and other organs. Mice were injected in the mammary fat pad with 4T1 cells. CD47 morpholino was administered intraperitoneally at a dose of 10 μM per mouse. Doxorubicin was adminstered intravenously at a dose of 10 mg/kg. The CD47 morpholino was administered weekly and the Doxorubicin administration was done weekly 48 hours after CD47 treatment. Five mice per group were treated. Lungs were exised, paraffin embedded, and hematoxylin and eosin stain was used to determine tissue structure.

[1] = system: Glut-1 glucose transporter; experiment: Glut-1 expression in tumors by western blot; type: in vivo, mouse; details: western blot of excised tumors
Experimental: Glucose uptake was measured 24 hours after treatment by adding 2-NBDG, which is a fluorescently labeled deoxyglucose analog that is used primarily to directly monitor glucose uptake by living cells. This confirmed that the combination treatment modified glucose metabolism to sensitize cells to Dox treatment (FIG. 10). Furthermore, blockade of CD47 in combination with dox decreased expression of the Glut-1 glucose transporter in vivo (FIG. 11). Tumors of mice were exised and protein expression was determined by western blot hybridization. Expression of Glut-1 was not affected by treatment with saline, doxorubicin or CD47 morpholino (CD47M) alone. […] Glut-1 facilitates the transport of glucose in cells and is a poor prognostic factor in breast cancer and other cancer types.

CD47 = experiment: Western blot of CD47 protein in tumors; type: in vivo, mouse; details: 48 hours after treatment
4T1 breast cancer cells [2] = experiment: Oxygen consumption rate and extracellular acidification rate, XF24 analyzer, 4T1 cells; type: cell-based, mouse; details: for extracellular acidification rate (ECAR): 4T1B cells, same treatments as OCR; for oxygen consumption rate (OCR): 4T1 cells, CD47 morpholino 10 μM 48 hours, doxorubicin 10 μg/ml 1 hour
Experimental: (§1) 4T1 breast cancer cells or B16 melanoma cells (2×10^4 cells) were plated in the presence or absence of CD47 morpholino (10 μM). After a 48 hour period of incubation, cells were treated with doxorubicin for 1 hour (10 μg/ml). OCR and ECAR were measured using an XF24 analyzer (Seahorse Bioscience, N. Billerica, Mass.).
(§2) To start elucidating the molecular mechanism of breast cancer sensitization to anthracycline therapy with CD47 blockade oxygen consumption rate (OCR) was tested. OCR is a measurement of mitochondrial respiration and is extremely sensitive to changes in metabolic demand (Tao et al., Anal. Biochem. 381:43-52, 2008). Increased OCR is an indicator of mitochondrial dysfunction in transformed cells associated with tumor aggressiveness and resistance to therapy (Vaupel and Mayer, Int. J. Biochem. Cell Biol. 44:1477-1481, 2012). To measure OCR, 4T1 breast cancer cells or B16 melanoma cells were plated in 24-well plates using the XF24 flux analyzer (Seahorse Bioscience). Cells were exposed to known mitochondrial poisons (oligomicin, carbonilcyanide p-triflouromethoxy-phenylhydrazone FCCP, or […]) to determine basal and maximal OCR.
It is well known that cancer cells show increased glycolytic flux. […] The extracellular acidification rate (ECAR) was measured in 4T1B cells using the XF24 flux analyzer following the same treatments stated above.

PINK and PARKIN = PINK and PARKIN gene expression by qRT-PCR in 4T1 cells; type: cell-based, mouse; details: single agents
Experimental: Autophagy can promote either survival or death of tissue. Selective mitochondrial turnover by mitophagy in tumor tissue can shift this pathway to a pro-death response (Gargini et al., Autophagy 7:466-476, 2011). To further understand the mechanism of mitophagy in breast cancer cells, 4T1 breast cancer cells were plated and treated with CD47 morpholino for 48 hours. […] Gene expression was determined by qRT-PCR.

B16 melanoma cells = experiment: Oxygen consumption rate, XF24 analyzer, B16 cells; type: cell-based, mouse; details: CD47 morpholino 10 μM 48 hours, doxorubicin 10 μg/ml 1 hour
Experimental: as §1, §2

lung tissue = details: mouse, in vivo
CD47 null Jurkat cells = system: CD47 null Jurkat cells
Experimental: (§3) Wild type or CD47 null Jurkat T cells were plated at a density of 7×10^3/well in 96 well plates or 500 cells/well in 1536 well plates. Cells were treated with increasing amounts of doxorubicin. Cell viability was measured 48 or 72 hours after treatment by MTS reduction or using CellTiter-Glo® cell viability assay (Promega, Madison Wis.).
(§4) Wild type or CD47 null Jurkat cells were plated at a density of 7×10^3/well in 96 well plates. Cells were treated with 10 μg/ml 5-FU or […] camptothecin. Cell viability was measured 72 hours after treatment by MTS reduction.

wild type Jurkat cells = system: wild type Jurkat cells
Experimental: as §3, §4

4T1 breast cancer cells [3] = experiment: Cell viability by MTS reduction, 4T1 cells with or without CD47 morpholino; type: cell-based, mouse; details: 10 μM CD47 morpholino 48 hours, doxorubicin 72 hours
Experimental: Cells were plated in the presence or absence of 10 μM CD47 morpholino. After 48 hours, cells were treated with the indicated amounts of doxorubicin (10 μg/ml in FIGS. 7B and C). Cell viability was measured 72 hours after treatment by MTS reduction (FIGS. 7A and D) or 24 hours after treatment by lactate dehydrogenase (LDH) release (FIGS. 7B and C). * p<0.001. Control cells were untreated and Endoporter indicates treatment with vehicle without morpholino in FIGS. 7B and C.
4T1 breast cancer cells were treated with CD47 morpholino and treated with increasing concentrations of doxorubicin.

PINK = PINK immunostaining of tumor and heart sections; type: in vivo, mouse; details: heart
Experimental: Briefly, slides were deparaffinized in xylene and rehydrated in graded alcohol. Antigen retrieval was performed using microwave antigen retrieval method with Target Retrieval Solution, pH 6.1 (Dako, Carpinteria, Calif.). […] Slides were incubated with respective antibodies. Sections were treated with streptavidin-biotin and DAB (3,3-diaminobenzidine) was used as chromogen. Hematoxylin was used for counterstaining. The intensity of the staining was evaluated under light microscopy.
Tissue sections from the initial tumor model were immune-stained for PINK.

Atg5 and Atg7 = experiment: Autophagy gene expression in hearts of WT and CD47 null mice; type: in vivo, mouse; details: 24 hours of treatment
Experimental: Samples were collected after 24 hours of treatment.
WT and CD47 null mice were treated with doxorubicin to determine effects on autophagy gene expression.

cardiac tissue = details: mouse, in vivo
Text: Hearts were collected from mice at the end of the tumor studies after four rounds of weekly doxorubicin treatment in the presence or absence of CD47 blockade. Sections were paraffin embedded and stained with H&E to determine tissue histology.
Tissue sections were subjected to TUNEL staining to detect cell death.

Row | Compound | tumor weight at end of study (4T1 breast tumors) | tumor growth (tumor volume) (4T1 breast tumors) | Glut-1 expression in tumors [1] | CD47 protein in tumors (CD47) | extracellular acidification rate (ECAR) (4T1 breast cancer cells [2]) | oxygen consumption rate (OCR) (4T1 breast cancer cells [2]) | PINK and PARKIN gene expression (in words) (PINK and PARKIN) | oxygen consumption rate (OCR) (B16 melanoma cells) | lung tissue condition / fibrosis (lung tissue) | cell viability (CD47 null Jurkat cells; CD47 deficient Jurkat T cells, increasing concentration of doxorubicin, 72 hours) | cell viability (wild type Jurkat cells; WT Jurkat T cells, increasing concentration of doxorubicin, 72 hours) | cell viability (4T1 breast cancer cells [3]) | PINK expression in hearts (PINK) | Atg5 and Atg7 mRNA levels in hearts (Atg5 and Atg7; CD47 null mice) | Atg5 mRNA level in hearts (Atg5 and Atg7; WT mice) | cardiac tissue histology (H&E) (cardiac tissue) | cell death in cardiac tissue (TUNEL staining) (cardiac tissue) | cytotoxicity (CD47 null Jurkat cells; human) [%] | cytotoxicity (wild type Jurkat cells; human) [%]
1 | CD47 morpholino: antisense morpholino oligonucleotide complementary to human and murine CD47, CGTCACAGGCAGGACCCACTGCCCA (SEQ ID NO: 3) (all phosphorodiamidate morpholino (PMO)) | reduction in tumor weight | slightly delayed tumor growth | not affected | decrease in CD47 protein | slight decrease in the ECAR | caused a reduction in OCR | minimal effects | caused a reduction in OCR |  |  |  |  |  |  |  |  |  |  | 
2 | COc1cccc2c1C(=O)c1c(O)c3c(c(O)c1C2=O)C[C@@](O)(C(=O)CO)C[C@@H]3O[C@H]1C[C@H](N)[C@H](O)[C@H](C)O1 [Doxorubicin] | reduction in tumor weight | slightly delayed tumor growth | not affected |  | high acidification in the media | showed the same pattern | minimal effects | showed the same pattern | less fibrosis | dose-dependent protection | decreased viability | reduction in cell viability | No change in PINK expression | markedly increased | slight reduction of Atg5 | characteristic degeneration of cardiac muscle | high TUNEL positive staining |  | 
3 | CC[C@@]1(O)C(=O)OCc2c1cc1n(c2=O)Cc2cc3ccccc3nc2-1 [Camptothecin] |  |  |  |  |  |  |  |  |  |  |  |  |  |  |  |  |  | 56 | 79
